Laboratory results from patent publication US20090298903A1, “USE OF TETRAMIC ACID DERIVATIVES FOR INSECT CONTROL” (priority 2006, published 2009).

Columns and labels:
Type in all cases: in vivo
Carpocapsa pomonella = experiment: Example 29: apple trees against Carpocapsa pomonella, fruit damage; conditions: application rate printed as g a.s./ha: Chlorpyrifos-methyl (25 WP) 0.1, (I-4) (240 SC + 0.1% Steffes Mero) 0.012
Description: Approx. 15-year-old apple trees cv. “Golden Delicious” are treated, in four replications, against Carpocapsa pomonella. The application is carried out with an atomizer. Here, the active substance Example (I-4) (240 SC) in a tank mix together with 0.1% a.s. of the adjuvant Steffes Mero (rapeseed oil methyl ester) (733 1R) and the commercial standard Chlorpyrifos-methyl (25 WP) are tested at the specified application rates. The water application rate is 1052 l/ha. Two applications are carried out at an interval of 13 days.
The test is evaluated 32 days after treatment 2 by scoring the fruit damage with the aid of the Abbott formula.

Liriomyza sp. = experiment: Example 18: beans against Liriomyza sp.
Description: Plots approx. 10 m^2 in size which are planted with beans cv. “Lago Azul” are treated, in three replications, against Liriomyza sp. Here, the active substance Example (I-4) (150 OD) and the commercial standards Cyromazine (WP 75) and Abamectin (EC 018) are applied at the specified application rates, using a knapsack sprayer which is operated with pressurized gas. The water application rate is 400 and 500 l/ha., respectively. Three applications are carried out at intervals of in each case 7 days.
The destruction rate in percent is determined on in each case 10 leaves. 2, 7, 12, 18, 20 and 25 days after the first treatment, the following results are obtained: […]

[1] = test system: Anthonomus pomorum, the apple blossom weevil; experiment: Example 26B: apple trees against apple blossom weevil; conditions: 22 d after treatment, larvae on inflorescences, Thiacloprid (SC 480) 48 + Deltamethrin 3.75 tank mix, (I-4) (150 OD) 48 g a.s./ha/m crown level
Description: Apple trees cv. “Holsteiner Cox” in plots approx. 20 m^2 in size are treated, in 4 replications, against Anthonomus pomorum, the apple blossom weevil. Here, the active substance Example (I-4) (150 OD) at the specified application rate is tested against a tank mix of the commercial standards Thiacloprid (SC 480) and Deltamethrin-liquid in the specified application rates. The application is carried out with a knapsack sprayer. Here, the treatment is effected with a water application rate of 500 l/ha/m crown level.
The test is evaluated 22 days after the treatment by scoring the destruction of the larvae on the inflorescences with the aid of the Abbott method.

[2] = test system: apple capsid bug (Plesiocoris rugicollis); experiment: Example 1B: apple trees against apple capsid bug; conditions: 37 d after treatment, larvae on twigs, Deltamethrin (EC 025) 3.75, (I-4) (150 OD) 30 g a.s./ha/m crown level
Description: Apple trees cv. “Holsteiner Cox” which are approximately 14 years old are treated, in 3 replications, against the apple capsid bug (Plesiocoris rugicollis). Here, the active substance Example (I-4) (150 OD) is tested at the specified application rate against the commercial standard Deltamethrin liquid (EC 025) at the specified application rate. The application is carried out with a knapsack sprayer. Here, the treatment is effected with a water application rate of 500 l/ha/m crown level.
The test is evaluated 37 days after the treatment by scoring the destruction of the larvae on the twigs with the aid of the Abbott method.

Dasineura pyri = experiment: Example 19b): pear trees against Dasineura pyri; conditions: 9 d after treatment 2, larvae in rolled leaves
Description: Fully-grown pear trees cv. “Conference” of crown height approx. 3.5 m are treated, in four replications, against Dasineura pyri. Here, the active substance Example (I-4) is tested as (150 OD) and (240 SC) together with 0.1% a.s. rapeseed oil methyl ester (Mero 733 1R) in a tank mix at the specified application rate against the commercial standard Endosulfan (350 EC) at the specified application rate. The application is carried out with a spray diffuser. Here, the treatment is effected with a water application rate of 1000 l/ha/m crown level. Two applications are carried out at an interval of 7 days.
The test is evaluated 9 days after treatment 2 by scoring the destruction rate of the larvae in the rolled leaves, using the Abbott method.

Thrips tabaci = experiment: Example 11: dwarf beans against Thrips tabaci
Description: Plots approx. 26 m^2 in size which are planted with dwarf beans are treated 16 days after emergence against Thrips tabaci, in four replications. The application is carried out with a knapsack sprayer which is operated with pressurized air. Here, the active substances Example (I-2) (240 SC) (I-4) (240 SC) and Example (I-9) (240 SC), in a tank mix with 0.1% a.s. rapeseed oil methyl ester (500 EW), are tested against the commercial standard Profenofos (720 EC) at the specified application rates. The water application rate is 1000 l/ha. Two applications are carried out at an interval of 10 days.
The test is evaluated 5 and 11 days after the first treatment by scoring the destruction rate of the nymphs on the leaves.

[3] = test system: Leptinotarsa decemlineata; experiment: Example 23: potatoes against Leptinotarsa decemlineata
Description: Plots approx. 10 m^2 in size which are planted with potatoes “Quarta” are treated, in three replications, against Leptinotarsa decemlineata. The application is carried out with a knapsack sprayer operated with pressurized air. Here, the active substance Example (I-4) (240 SC), in a tank mix together with 0.2% a.s. rapeseed oil methyl ester (500 EW) and the commercial standard Deltamethrin (100 EC), is tested at the specified application rate. The water application rate is 300 l/ha.
The test is evaluated 3, 8 and 20 days after the treatment by scoring the destruction rate of the animals (larvae) on the plants.

CCOC(=O)OC1=C(c2cc(C)ccc2C)C(=O)N[C@]12CC[C@@H](OC)CC2 [Example (I-4)] was tested, and the “Efficacy (% Abbott) 32 d after treatment 2” value (Carpocapsa pomonella) was 73.7 % Abbott, the “Efficacy (% Abbott) 2 d” value (Liriomyza sp.; 2 d after first treatment, 10 leaves, Cyromazine (WP 75) 130, (I-4) (150 OD) 100, Abamectin (EC 018) 14.4 g a.s./ha, three applications, 7-day intervals) was 40 % Abbott and the “Efficacy (% Abbott) 7 d” value (Liriomyza sp.; 7 d after first treatment, Cyromazine 130, (I-4) 100, Abamectin 14.4 g a.s./ha) was 69 % Abbott. The “Efficacy (% Abbott) 12 d” value (Liriomyza sp.; 12 d after first treatment, Cyromazine 130, (I-4) 100, Abamectin 14.4 g a.s./ha) was 30 % Abbott, the “Efficacy (% Abbott) 18 d” value (Liriomyza sp.; 18 d after first treatment, Cyromazine 130, (I-4) 100, Abamectin 14.4 g a.s./ha) was 43 % Abbott and the “Efficacy (% Abbott) 20 d” value (Liriomyza sp.; 20 d after first treatment, Cyromazine 130, (I-4) 100, Abamectin 14.4 g a.s./ha) was 57 % Abbott. For the same compound, the “Efficacy (% Abbott) 25 d” value (Liriomyza sp.; 25 d after first treatment, Cyromazine 130, (I-4) 100, Abamectin 14.4 g a.s./ha) was 46 % Abbott, the “Efficacy (%) Abbott 22 d” value [1] was 88% and the “Efficacy (%) Abbott 37 d” value [2] was 96%. For the same compound, the “Efficacy (% Abbott) 9 d” value (Dasineura pyri; (I-4) as 150 OD, 150 g a.s./ha/m crown level) was 100 % Abbott, the “Efficacy (% Abbott) 9 d” value (Dasineura pyri; Endosulfan (350 EC) 472.5, (I-4) as 240 SC + Mero (0.1% rapeseed oil methyl ester) 120 g a.s./ha/m crown level) was 94.6 % Abbott and the “Efficacy (% Abbott) 5 d” value (Thrips tabaci; 5 d after first treatment, nymphs on leaves, Profenofos (720 EC) 1300, (I-9) 54, (I-2) 54, (I-4) 60 g a.s./ha, 240 SC + 0.1% rapeseed oil methyl ester) was 60 % Abbott. The “Efficacy (% Abbott) 11 d” value (Thrips tabaci; 11 d after first treatment (second application at 10 days), Profenofos 1300, (I-9) 54, (I-2) 54, (I-4) 60 g a.s./ha) was 90 % Abbott, the “Efficacy (% Abbott) 3 d” value ([3]; 3 d after treatment, larvae, Deltamethrin (100 EC) 75, (I-4) (240 SC + 0.2% rapeseed oil methyl ester) 72 g a.s./ha) was 53.3 % Abbott and the “Efficacy (% Abbott) 8 d” value ([3]; 8 d after treatment, Deltamethrin 75, (I-4) 72 g a.s./ha) was 72.7 % Abbott. For the same compound, the “Efficacy (% Abbott) 20 d” value ([3]; 20 d after treatment, Deltamethrin 75, (I-4) 72 g a.s./ha) was 84.4 % Abbott.
